Test results published in patent US8518917B2, “2-methylene-19-nor-vitamin D analogs and their uses” (Wisconsin Alumni Research Foundation, priority 2009, dated 2013).
Where two headings read alike, the source gives them in different places.

Assays:
[1] = test system: 24-hydroxylase (24Ohase) gene promoter; experiment: In vitro transcription assay, luciferase reporter in ROS 17/2.8 (bone) cells; assay type: cell-based; conditions: FIG. 3; for EC50: ROS 17/2.8 cells, sixteen hours after dosing, read-out: EC50, transcriptional activity in bone cells (24-hydroxylase gene)
Method: Transcription activity was measured in ROS 17/2.8 (bone) cells that were stably transfected with a 24-hydroxylase (24Ohase) gene promoter upstream of a luciferase reporter gene (Arbour et al., 1998). Cells were given a range of doses. Sixteen hours after dosing the cells were harvested and luciferase activities were measured using a luminometer. RLU=relative luciferase units.

[2] = test system: Human promyelocytic leukemia (HL60) cells; experiment: HL-60 cell differentiation (nitro blue tetrazolium reduction); assay type: cell-based; conditions: four days treatment, read-out: EC50, promotion of HL60 differentiation
Method: The study drugs were dissolved in ethanol and the concentrations determined using UV spectrophotometry. Serial dilutions were prepared so that a range of drug concentrations could be tested without changing the final concentration of ethanol (≦0.2%) present in the cell cultures.
Human promyelocytic leukemia (HL60) cells were grown in RPMI-1640 medium containing 10% fetal bovine serum. The cells were incubated at 37° C. in the presence of 5% CO2.
HL60 cells were plated at 1.2×10^5 cells/ml. Eighteen hours after plating, cells in duplicate were treated with drug. Four days later, the cells were harvested and a nitro blue tetrazolium reduction assay was performed (Collins et al., 1979; J. Exp. Med. 149:969-974). The percentage of differentiated cells was determined by counting a total of 200 cells and recording the number that contained intracellular black-blue formazan deposits. Verification of differentiation to monocytic cells was determined by measuring phagocytic activity (data not shown).

[3] = target: T1, full-length recombinant rat vitamin D receptor (Rattus norvegicus, UniProt P13053); experiment: Vitamin D receptor competitive binding with [3H]-1,25(OH)2D3; conditions: read-out: Ki, competition with [3H]-1,25(OH)2D3 for binding to vitamin D receptor
T1 construct: Full-length recombinant rat receptor was expressed in E. coli; histidine tag (C); made in house; host or cells: E. coli BL21 (DE3) Codon Plus RIL
T1 sequence (P13053 1-423): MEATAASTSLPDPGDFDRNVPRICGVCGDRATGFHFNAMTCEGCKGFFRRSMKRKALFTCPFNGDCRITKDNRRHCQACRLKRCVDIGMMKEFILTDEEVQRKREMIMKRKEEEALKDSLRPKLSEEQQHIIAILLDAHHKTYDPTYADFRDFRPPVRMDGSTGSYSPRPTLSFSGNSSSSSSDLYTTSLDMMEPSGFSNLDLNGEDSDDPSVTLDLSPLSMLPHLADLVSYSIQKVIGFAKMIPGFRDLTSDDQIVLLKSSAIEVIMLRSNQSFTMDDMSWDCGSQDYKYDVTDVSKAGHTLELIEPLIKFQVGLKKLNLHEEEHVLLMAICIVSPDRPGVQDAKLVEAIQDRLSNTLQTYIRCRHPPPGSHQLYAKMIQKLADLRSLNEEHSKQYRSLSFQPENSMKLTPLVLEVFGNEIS
Method: Full-length recombinant rat receptor was expressed in E. coli BL21 (DE3) Codon Plus RIL cells and purified to homogeneity using two different column chromatography systems. The first system was a nickel affinity resin that utilizes the C-terminal histidine tag on this protein. The protein that was eluted from this resin was further purified using ion exchange chromatography (S-Sepharose Fast Flow). Aliquots of the purified protein were quick frozen in liquid nitrogen and stored at −80° C. until use. For use in binding assays, the protein was diluted in TEDK50 (50 mM Tris, 1.5 mM EDTA, pH7.4, 5 mM DTT, 150 mM KCl) with 0.1% Chaps detergent. The receptor protein and ligand concentration was optimized such that no more than 20% of the added radiolabeled ligand was bound to the receptor.
The following day, 100 mcl of hydroxylapatite slurry (50%) was added to each tube and mixed at 10-minute intervals for 30 minutes. […] After the final wash, the pellets were transferred to scintillation vials containing 4 ml of Biosafe II scintillation cocktail, mixed and placed in a scintillation counter. Total binding was determined from the tubes containing only radiolabeled ligand.

vitamin D-deficient rats [4] = experiment: Bone calcium mobilization (serum calcium); assay type: in vivo, rat
Method: (§1) Male, weanling Sprague-Dawley rats were placed on Diet 11 (Suda et al, J. Nutr. 100:1049, 1970) (0.47% Ca)+vitamins AEK for one week followed by Diet 11 (0.02% Ca)+vitamins AEK for 3 weeks. The rats were then switched to the same diet containing 0.47% Ca for one week followed by two weeks on the same diet containing 0.02% Ca. Dose administration began during the last week on 0.02% calcium diet. Four consecutive ip doses were given approximately 24 hours apart. Twenty-four hours after the last dose, blood was collected from the severed neck and the concentration of serum calcium determined by atomic absorption spectrometry as a measure of bone calcium mobilization. The first 10 cm of the intestine was also collected for intestinal calcium transport analysis using the everted gut sac method.

vitamin D-deficient rats [5] = experiment: Intestinal calcium transport (everted gut sac method); assay type: in vivo, rat; conditions: rats on 0.02% Ca diet, four consecutive ip doses
Method: as §1

[6] = 780 pmol/day for 4 consecutive days, ip, rats on 0.02% Ca diet
[7] = four consecutive ip doses, rats on 0.02% Ca diet

EC50 ([2]; Homo sapiens, HL-60, 96 h, FIG. 2 experiment) [nM] | Ki ([3]; FIG. 1 experiment (1-desoxy-2MD vs 1,25(OH)2D3)) [nM] | EC50 ([2]; Homo sapiens, HL-60, 96 h, FIG. 7 experiment) [nM] | Ki ([3]; FIG. 6 experiment (1D-MJ vs 1,25(OH)2D3)) [nM] | SMILES | EC50 [1] [nM] | times less potent than 1,25(OH)2D3 in increasing transcription of the 24-hydroxylase gene ([1]; bone cells) | mobilization of bone calcium (serum calcium) (vitamin D-deficient rats [4]; [6]) | dose until which little to no bone calcium mobilization activity is observed (vitamin D-deficient rats [4]; [7]) [pmol/rat] | times less potent than 1,25(OH)2D3 in promoting intestinal calcium transport (vitamin D-deficient rats [5]) | EC50 ([2]; FIG. 2 experiment) [nM] | EC50 ([2]; FIG. 7 experiment) [nM] | mobilization of bone calcium (serum calcium) (vitamin D-deficient rats [4]; 87 pmol, four consecutive ip doses, FIG. 8)
10 | 0.1 |  |  | C=C1CC/C(=C\C=C2/CCC[C@]3(C)[C@@H]([C@@H](C)CCCC(C)(C)O)CC[C@@H]23)C[C@H]1O [1-desoxy-2MD, (20S)-25-hydroxy-2-methylene-19-nor-vitamin D3] | 4 | about 20 times | little or no mobilization of bone calcium | ≥ 7020 | about 20 times |  |  | 
 |  |  |  | C=C1/C(=C\C=C2/CCC[C@]3(C)[C@@H]([C@H](C)CCCC(C)(C)O)CC[C@@H]23)C[C@@H](O)C[C@@H]1O [1α,25-dihydroxyvitamin D3, reference compound] | 0.2 |  | significant increases in serum calcium |  |  | 4 | 3 | significant increases in serum calcium
 |  | 300 | 4 | C=C1CC/C(=C\C=C2/CCC[C@]3(C)[C@@H]([C@H](C)CCCC(C)(C)O)CC[C@@H]23)C[C@H]1O [1D-MJ, (20R)-25-hydroxy-2-methylene-19-nor-vitamin D3] |  |  | little or no mobilization of bone calcium | ≥ 7020 | about 10 times |  |  | 
